The values that follow come from ChEMBL document CHEMBL1201862, “PubChem BioAssay data set” (2004).

What all share (test): inhibition of tumour cell growth, NCI panel, 48 h
The test system of assay [1] is OVCAR-8.
Assay [2] relates to K562.
The subject of assay [3] is ACHN.
The subject of assay [4] is SN12C.
For assay [5], the system named is RXF 393.
The test system of assay [6] is HOP-62.
The subject of assay [7] is SK-OV-3.
Assay [8] has as its system NCI-H23.
Assay [9] has as its system NCI-H460.
In assay [10] the test system is SR.
Assay [11] relates to EKVX.
Assay [12] deals with MOLT-4.
The test system of assay [13] is MDA-N.
Assay [14] relates to NCI/ADR-RES.
Assay [15] deals with SF-539.
The subject of assay [16] is IGROV-1.
In assay [17] the test system is TK-10.
The subject of assay [18] is MDA-MB-435.
For assay [19], the system named is SF-295.
The subject of assay [20] is RPMI-8226.

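Briefly, cells in 96-well plates were exposed to five compound concentrations for 48 h, and endpoints were estimated by linear interpolation. At the GI50, growth is halved.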 The source made the active and inactive calls. Rule as the data show it: active = GI50 up to about 1.1 µM and inactive = higher.

As to `Cc1nc2c(ccc3[nH]c4ccccc4c32)s1`, the GI50 was 30.1 µM (inactive) in assay [1]; 22.3 µM (inactive) in assay [2]; 35.1 µM (inactive) in assay [3]; 24 µM (inactive) in [4]; 29.8 µM (inactive) in assay [5]; 17.4 µM (inactive) in assay [6]. Further, the GI50 in assay [7] is 22.3 µM (inactive); in assay [8], 30.2 µM (inactive); in assay [9], 20.6 µM (inactive); in [10], 13.8 µM (inactive); in assay [11] it was 21.2 µM (inactive); in assay [12], 12.6 µM (inactive). The GI50 in [13] is 31.1 µM (inactive); in assay [14], 34.8 µM (inactive); in [15] it was 26 µM (inactive); in assay [16], 21.9 µM (inactive); in [17] it was 29.5 µM (inactive); in assay [18] it was 26.4 µM (inactive).
For the compound `CO[P@@]1(=O)O[C@@H](c2ccccc2)[C@H](O)[C@@]1(O)c1ccccc1`, the GI50 in [1], in assay [2], in assay [3], in assay [4], in assay [5] and in assay [7] was > 100 µM (inactive) in each case. In addition, the GI50 in assay [8] was > 100 µM (inactive); in assay [9] it was > 100 µM (inactive); in [10], 10.2 µM (inactive); in assay [11] it was > 100 µM (inactive); in [12], 22.8 µM (inactive); in assay [13], > 100 µM (inactive). Moreover, the GI50 in assay [14], in assay [15], in assay [16], in assay [19], in assay [17] and in [18] was > 100 µM (inactive) each time.
For the compound `CC(C)CCNC(=O)c1ccc(CNC(=O)/C=C/c2ccc(-c3ccccc3[N+](=O)[O-])o2)cc1`, the GI50 is 26.6 µM (inactive) in [1]; 82.6 µM (inactive) in assay [2]; 53.2 µM (inactive) in assay [3]; > 100 µM (inactive) in assay [4]; > 100 µM (inactive) in assay [5]; 24.3 µM (inactive) in assay [6]. Further, the GI50 in assay [7] is > 100 µM (inactive); in [8], 82.8 µM (inactive); in assay [9], > 100 µM (inactive); in assay [10], 91.8 µM (inactive); in assay [12], > 100 µM (inactive); in assay [20] it was 96.8 µM (inactive). In addition, the GI50 in assay [13] was 89.5 µM (inactive); in assay [14] it was 28.2 µM (inactive); in assay [19] it was 42.7 µM (inactive); in assay [18] it was 34.9 µM (inactive).
As to `COc1ccc2cc1Oc1ccc(cc1)CC1c3cc(OC)c(cc3CCN1C)Oc1c(OC)c(OC)cc3c1C(C2)N(C)CC3` (stereo unspecified), the GI50 is 12.4 µM (inactive) in assay [1]; 7.94 µM (inactive) in [2]; 9.57 µM (inactive) in assay [3]; 9.02 µM (inactive) in assay [4]; 29.4 µM (inactive) in [7]; 15.1 µM (inactive) in assay [8]. In addition, the GI50 was 10.2 µM (inactive) in assay [9]; 1.17 µM (inactive) in assay [10]; 12.2 µM (inactive) in assay [11]; 10.4 µM (inactive) in assay [12]; 10.5 µM (inactive) in assay [13]; 14 µM (inactive) in assay [14]. For the same compound, the GI50 was 8.95 µM (inactive) in assay [15]; 18.8 µM (inactive) in [16]; 9.06 µM (inactive) in [19]; 10.8 µM (inactive) in assay [17]; 12 µM (inactive) in [18].
`O=C(c1ccccc1)N1CCN(C(=S)N(C(=O)c2ccccc2)c2ccccc2)C1=S`: the GI50 in assay [1] was 3.13 µM (inactive); in [2], 2.41 µM (inactive); in [3] it was 2.79 µM (inactive); in [4], 3.18 µM (inactive); in assay [6] it was 10.3 µM (inactive); in assay [7] it was 15.5 µM (inactive). Further, the GI50 in [8] is 3.05 µM (inactive); in assay [9] it was 17.5 µM (inactive); in assay [10], 2.07 µM (inactive); in [11], 5.92 µM (inactive); in [12] it was 1.89 µM (inactive); in [20] it was 0.914 µM (active). Further, the GI50 in assay [13] is 4.18 µM (inactive); in assay [14] it was 5.16 µM (inactive); in [15], 2.62 µM (inactive); in assay [16], 3.52 µM (inactive); in assay [19], 12.6 µM (inactive); in assay [17], 5.83 µM (inactive). For the same compound, the GI50 in assay [18] is 3.84 µM (inactive).
`COc1cc(S(=O)(=O)Nc2ccc(-c3csc(N4C(=O)C(C)SC4c4ccccc4O)n3)cc2)ccc1Cl` (stereo unspecified): the GI50 in assay [1] is 40.9 µM (inactive); in assay [2], 32.8 µM (inactive); in [3], 65.8 µM (inactive); in [4], 40.9 µM (inactive); in [6], 82.6 µM (inactive); in assay [7], > 100 µM (inactive). Further, the GI50 was 30.1 µM (inactive) in assay [8]; 36.2 µM (inactive) in assay [10]; 28.8 µM (inactive) in assay [11]; 27.1 µM (inactive) in assay [12]; 32.1 µM (inactive) in assay [20]; 28.6 µM (inactive) in assay [13]. The GI50 is > 100 µM (inactive) in assay [14]; 34.8 µM (inactive) in assay [15]; 35.8 µM (inactive) in assay [16]; 59.3 µM (inactive) in assay [19]; 37.8 µM (inactive) in assay [18].
`CC1=CC(=O)/C(=C/NC(=S)NCc2ccccc2)C(=O)O1`: the GI50 in [1], in assay [3], in assay [4], in assay [5], in assay [6] and in [7] was > 100 µM (inactive) each time. Also, the GI50 in [8] is > 100 µM (inactive); in [9], > 100 µM (inactive); in [10], > 100 µM (inactive); in assay [11] it was > 100 µM (inactive); in [12], 52.2 µM (inactive); in assay [13] it was > 100 µM (inactive). Moreover, the GI50 in assay [14], in assay [15], in assay [16], in assay [19], in assay [17] and in assay [18] was > 100 µM (inactive) throughout.
For `CC1(N2CCOCC2)CC2C(=[N+]1[O-])CCC/C2=N/O` (stereo unspecified), the GI50 in assay [1], in assay [2], in assay [3], in assay [4], in assay [5] and in assay [6] was > 100 µM (inactive) in each case. The GI50 in assay [7], in assay [8], in assay [9], in assay [10], in [11] and in assay [12] was > 100 µM (inactive) throughout. Further, the GI50 in assay [13], in assay [14], in [15], in [16], in assay [19] and in assay [17] was > 100 µM (inactive) each time. Also, the GI50 in assay [18] is > 100 µM (inactive).
On to `O=C(OC1C#CCSCC#C/C=C\1)c1cnc2ccccc2n1` (stereo unspecified), for which the GI50 in assay [1] was 0.409 µM (active); in [2], 19.7 µM (inactive); in assay [3], > 100 µM (inactive); in [4] it was > 100 µM (inactive); in assay [5], 79.8 µM (inactive); in assay [6] it was > 100 µM (inactive). Also, the GI50 in assay [7] was > 100 µM (inactive); in assay [8], > 100 µM (inactive); in assay [9], 14.1 µM (inactive); in assay [10] it was 12.2 µM (inactive); in assay [11], > 100 µM (inactive); in assay [13] it was > 100 µM (inactive). The GI50 in [14] was 0.805 µM (active); in assay [15] it was > 100 µM (inactive); in assay [16], > 100 µM (inactive); in assay [19], > 100 µM (inactive); in assay [17], > 100 µM (inactive); in [18], > 100 µM (inactive).
In the case of `CCN(CC)COC(=S)S`, the GI50 in assay [1] was 42.4 µM (inactive); in [2] it was 38 µM (inactive); in assay [3] it was > 100 µM (inactive); in [4] it was > 100 µM (inactive); in assay [6] it was 48.8 µM (inactive); in assay [7], > 100 µM (inactive). For the same compound, the GI50 in assay [8] is > 100 µM (inactive); in assay [9], 30.1 µM (inactive); in [10], 0.233 µM (active); in [11], > 100 µM (inactive); in [12], 22.3 µM (inactive); in [13], > 63.2 µM (inactive). In addition, the GI50 in assay [14] was > 88.1 µM (inactive); in assay [15], 90.6 µM (inactive); in [16], 89.7 µM (inactive); in assay [19] it was > 77.6 µM (inactive); in [17] it was > 54 µM (inactive); in [18], 38.3 µM (inactive).
In the case of `CC1C(c2ccccc2)O[B-](F)(c2ccccc2)[NH+]1C` (stereo unspecified), the GI50 in assay [1], in [2], in [3], in [4], in assay [6] and in [7] was > 100 µM (inactive) in each case. Further, the GI50 in assay [8], in assay [9], in [10], in [11], in assay [12] and in assay [20] was > 100 µM (inactive) in each case. Also, the GI50 in assay [13], in assay [14], in assay [16], in assay [19], in [17] and in assay [18] was > 100 µM (inactive) each time.
